Results reported in article PMC12298648, “An Evaluation of the Cytotoxicity and Safety Profile of Usnic Acid for a Broad Panel of Human Cancers and Normal Cells with Respect to Its Enantiospecificity” (Molecules, 2025).
Values after ≈ are worked out from the molar mass of the structure shown. Read-outs that look alike come from different tables or passages of the source.

Columns and labels:
DU145 = test: MTT viability assay, DU145 prostate cancer cells; type: cell-based, human; details: for Cell viability: DU145, 24 h; for IC50: Homo sapiens, DU-145
Description: (§1) Cell lines of different origins were used in the study and grouped as follows: prostate panel (human prostate carcinomas: DU145, derived from metastatic site: brain; grade IV PC3, derived from metastatic site: bone; LNCaP, derived from the metastatic site: lymph node; prostate epithelial, PNT2), colon panel (colorectal adenocarcinomas: HT29, originating from a primary tumor; Duke’s type C DLD-1, with the potential to lymph node metastasis; highly metastatic HCT116; colon epithelial cells CCD 841 CoN), thyroid panel (follicular thyroid carcinoma FTC133, anaplastic thyroid carcinoma 8505C, papillary thyroid carcinoma TPC-1, normal thyroid follicular epithelial Nthy-ori 3–1), breast panel (ER-positive breast adenocarcinoma MCF7, ER-negative breast adenocarcinoma MDA-MB-231, breast epithelial MCF10A), brain panel (neuroblastoma SH-SY5Y, glioblastoma U-87 MG, murine astrocytes C8D1A). All cell lines were purchased from Merck (Darmstadt, Germany).
(§2) Cells were grown under standard conditions (37 °C, 5% CO2) and culture media (DMEM/F12 for PNT2, PC3, FTC133, 8505 C, MDA-MB-231, TPC-1; DMEM Low Glucose for DU145; DMEM High Glucose for HCT116, DLD-1, SH-SY5Y, U87MG, C8D1A; MEM with NEAA for MCF7; MEM for CCD 841 CoN; McCoy’s for HT29; RPMI1640 with sodium pyruvate for LNCaP; DMEM/F12 with 20 ng/mL epidermal growth factor (EGF), 10 μg/mL insulin, 0.5 μg/mL hydrocortisone, 100 ng/mL cholera toxin) for MCF10A), supplemented with 10% fetal bovine serum (FBS) or 5% donor horse serum for MCF10A, and 1% antibiotics solution (10,000 U penicillin and 10 mg streptomycin/mL). The tested substances were prepared as 10 mg/mL stock solutions in DMSO and further diluted in the culture media to the working concentrations. Cells were treated with UA enantiomers at the concentration range of 0–50 µg/mL. The influence of DMSO on cell viability was also examined, with the final concentration […], and no toxic effect was noted.
(§3) The cells were seeded onto 96-well plates at a density of 1.5 × 10^4 cells/well. After 24 h UA enantiomers were added. Cell viability was determined after 24, 48, and 72 h by the MTT assay, as described previously. Doxorubicin was used as a reference cytostatic drug. All analyses were performed in triplicate; cell viability was expressed as % of control, untreated cells (mean ± SD), and IC50 values (concentration at which cell viability is inhibited by 50%), if possible.
(§4) The selectivity index (SI) was calculated, if possible, by dividing the IC50 value obtained for non-cancerous cells line by the IC50 values obtained for appropriate cancer cell line, as described previously. […] The values above 3 indicate good selectivity.

MCF7 cells = test system: MCF7 cells; set-up: method as in not printed ('another' study); details: MCF7, 72 h, ref not given ('another' study), cited from earlier work
HT29 cells = details: HT29, 48 h, cited from earlier work
HT29 = test: MTT viability assay, HT29 colon cancer cells; type: cell-based, human; details: for Cell viability: HT29, 24 h; for IC50: Homo sapiens, HT-29
Description: as §1, §2, §3

MCF7 = test: MTT viability assay, MCF7 breast cancer cells; type: cell-based, human; details: for IC50: Homo sapiens; for Cell viability: MCF7, 24 h
Description: as §1, §2, §3, §4

8505C = test: MTT viability assay, 8505C anaplastic thyroid carcinoma cells; type: cell-based, human; details: for Cell viability: 24 h; for IC50: Homo sapiens
Description: as §1, §2, §3

FTC133 = test: MTT viability assay, FTC133 follicular thyroid carcinoma cells; type: cell-based, human; details: for Cell viability: FTC-133, 24 h; for IC50: Homo sapiens, FTC-133
Description: as §1, §2, §3, §4

HCT116 = test: MTT viability assay, HCT116 colon cancer cells; type: cell-based, human; details: for Cell viability: HCT116, 24 h; for IC50: Homo sapiens, HCT-116
Description: as §1, §2, §3

MCF10A = test: MTT viability assay, normal breast epithelial cells; type: cell-based, human; details: for IC50: Homo sapiens, MCF-10A, MCF10A normal cells; for Cell viability: MCF10A, 24 h
Description: as §1, §2, §3

Nthy ori 3-1 = test: MTT viability assay, normal thyroid follicular epithelial cells; type: cell-based, human; details: for IC50: Homo sapiens; for Cell viability: Nthy ori 3-1, 24 h
Description: as §1, §2, §3

[1] = recalculated from µM by the authors

SMILES: CC(=O)C1=C(O)C=C2Oc3c(C(C)=O)c(O)c(C)c(O)c3[C@]2(C)C1=O [UA(−), (−)-usnic acid]
- Cell viability (DU145; 2.5 µg/mL): 99.84 % of control
- Cell viability (DU145; 5 µg/mL): 89.03 % of control
- Cell viability (DU145; 10 µg/mL): 82.15 % of control
- Cell viability (DU145; 20 µg/mL): 77.63 % of control
- Cell viability (DU145; 30 µg/mL): 68.28 % of control
- Cell viability (DU145; 40 µg/mL): 64.95 % of control
- Cell viability (DU145; 50 µg/mL): 65.86 % of control
- IC50 (DU145; DU145, 48 h): 34.8 µg/mL (≈ 101 µM)
- IC50 (DU145; DU145, 72 h): 18.6 µg/mL (≈ 54 µM)
- selectivity index (SI) (DU145; IC50 PNT2 / IC50 DU145, 48 h): 1.02
- selectivity index (SI) (DU145; IC50 PNT2 / IC50 DU145, 72 h): 1.49
- IC50 (MCF7 cells; [1]): 17.8 µg/mL
- IC50 (MCF7 cells; read-out: IC50): 51.7 µM
- IC50 (HT29 cells; [1]): 18.9 µg/mL
- IC50 (HT29 cells; read-out: IC50): 55 µM
- Cell viability (HT29; 2.5 µg/mL): 102.45 % of control
- Cell viability (HT29; 5 µg/mL): 90.48 % of control
- Cell viability (HT29; 10 µg/mL): 84.03 % of control
- Cell viability (HT29; 20 µg/mL): 79.62 % of control
- Cell viability (HT29; 30 µg/mL): 74.37 % of control
- Cell viability (HT29; 40 µg/mL): 72.48 % of control
- Cell viability (HT29; 50 µg/mL): 73.95 % of control
- IC50 (HT29; HT29, 48 h): > 50 µg/mL
- IC50 (HT29; HT29, 72 h): 32.7 µg/mL (≈ 95 µM)
- IC50 (MCF7; MCF7, 48 h): > 50 µg/mL
- IC50 (MCF7; MCF7, 72 h): 33.4 µg/mL (≈ 97 µM)
- Cell viability (MCF7; 2.5 µg/mL): 124.74 % of control
- Cell viability (MCF7; 5 µg/mL): 113.59 % of control
- Cell viability (MCF7; 10 µg/mL): 110.03 % of control
- Cell viability (MCF7; 20 µg/mL): 106.15 % of control
- Cell viability (MCF7; 30 µg/mL): 109.10 % of control
- Cell viability (MCF7; 40 µg/mL): 106.28 % of control
- Cell viability (MCF7; 50 µg/mL): 91.15 % of control
- Cell viability (8505C; 2.5 µg/mL): 105.18 % of control
- Cell viability (8505C; 5 µg/mL): 107.97 % of control
- Cell viability (8505C; 10 µg/mL): 100.80 % of control
- Cell viability (8505C; 20 µg/mL): 100.00 % of control
- Cell viability (8505C; 30 µg/mL): 102.79 % of control
- Cell viability (8505C; 40 µg/mL): 103.98 % of control
- Cell viability (8505C; 50 µg/mL): 94.42 % of control
- IC50 (8505C; 48 h): > 50 µg/mL
- IC50 (8505C; 72 h): > 50 µg/mL
- Cell viability (FTC133; 2.5 µg/mL): 108.51 % of control
- Cell viability (FTC133; 5 µg/mL): 106.14 % of control
- Cell viability (FTC133; 10 µg/mL): 87.63 % of control
- Cell viability (FTC133; 20 µg/mL): 89.56 % of control
- Cell viability (FTC133; 30 µg/mL): 93.33 % of control
- Cell viability (FTC133; 40 µg/mL): 86.67 % of control
- Cell viability (FTC133; 50 µg/mL): 83.25 % of control
- IC50 (FTC133; FTC133, 48 h): > 50 µg/mL
- IC50 (FTC133; FTC133, 72 h): 35.3 µg/mL (≈ 103 µM)
- selectivity index (SI) (FTC133; IC50 Nthy ori 3-1 / IC50 FTC133, 72 h): 0.83
- Cell viability (HCT116; 2.5 µg/mL): 112.65 % of control
- Cell viability (HCT116; 5 µg/mL): 108.16 % of control
- Cell viability (HCT116; 10 µg/mL): 96.26 % of control
- Cell viability (HCT116; 20 µg/mL): 84.97 % of control
- Cell viability (HCT116; 30 µg/mL): 72.86 % of control
- Cell viability (HCT116; 40 µg/mL): 71.90 % of control
- Cell viability (HCT116; 50 µg/mL): 73.33 % of control
- IC50 (HCT116; HCT116, 48 h): 26.2 µg/mL (≈ 76.1 µM)
- IC50 (HCT116; HCT116, 72 h): 10.7 µg/mL (≈ 31.1 µM)
- IC50 (MCF10A; 48 h): > 50 µg/mL
- IC50 (MCF10A; 72 h): > 50 µg/mL
- Cell viability (MCF10A; 2.5 µg/mL): 102.83 % of control
- Cell viability (MCF10A; 5 µg/mL): 100.30 % of control
- Cell viability (MCF10A; 10 µg/mL): 101.52 % of control
- Cell viability (MCF10A; 20 µg/mL): 98.59 % of control
- Cell viability (MCF10A; 30 µg/mL): 100.10 % of control
- Cell viability (MCF10A; 40 µg/mL): 103.54 % of control
- Cell viability (MCF10A; 50 µg/mL): 99.39 % of control
- IC50 (Nthy ori 3-1; Nthy-ori 3-1, 48 h): > 50 µg/mL
- IC50 (Nthy ori 3-1; Nthy-ori 3-1, 72 h): 29.3 µg/mL (≈ 85.1 µM)
- Cell viability (Nthy ori 3-1; 2.5 µg/mL): 97.23 % of control
- Cell viability (Nthy ori 3-1; 5 µg/mL): 99.36 % of control
- Cell viability (Nthy ori 3-1; 10 µg/mL): 94.52 % of control
- Cell viability (Nthy ori 3-1; 20 µg/mL): 93.76 % of control
- Cell viability (Nthy ori 3-1; 30 µg/mL): 95.25 % of control
- Cell viability (Nthy ori 3-1; 40 µg/mL): 96.10 % of control
- Cell viability (Nthy ori 3-1; 50 µg/mL): 98.58 % of control
